Data on one molecule can be found in US20160368943A1, “SUBSTITUTED PURINE COMPOUNDS” (EPIZYME, INC., priority 2013, published 2016).

Read-outs that look alike come from different tables or passages of the source. Where only a bound is given, the exact number is not on record here.

Data set [1] is described as follows: Metabolite profiling in liver microsomes with NADPH and UDPGA, rat. Format: in vitro ADME. The settings on record: Compound A 10 μM, 20 min. The procedure: Compound A was incubated with liver microsomes of various species (mouse, rat, dog or human). […] For all liver microsomal incubations, samples were taken at 0 and 20 minutes. All samples were quenched by using acetonitrile/methanol solution and analyzed using an LC-MS/MS Q-Trap system (AB Sciex, Framingham, Mass.).
The corresponding product ion tandem mass spectra of Compound A and its metabolites were obtained by using enhanced product ion (EPI) scans during positive ion electrospray. The possible chemical structures of the metabolites were deduced based on their MS1 and MS2 spectra.
(Liver microsomes are vesicles of endoplasmic reticulum, rich in cytochrome P450 enzymes.)

Data set [2] is described as follows: Plasma protein binding by equilibrium dialysis, rat. Format: in vitro ADME. The settings on record: male, Sprague-Dawley, pH 7.4, read-out: Plasma free fraction. On the procedure: (§1) Plasma protein binding was assessed by equilibrium dialysis, utilizing the HT-dialysis cell format with a cellulose semi permeable membrane (molecular weight cut off of 5000 Da). Plasma was warmed to 37° C. and adjusted to pH 7.4 before use. Male Sprague-Dawley rat, male Beagle dog, male CD-1 mouse and mixed sex human plasma was used for the studies. A 5 μM test compound solution was prepared in isotonic phosphate buffer and rat, dog, mouse and human plasma (final DMSO concentration of 0.5%). The plasma-containing solution was introduced to one side of the membrane, and the plasma-free on the other. Incubations were performed for 2-16 hours in duplicate in order to allow the compound to reach equilibrium. Haloperidol was included as the control compound for each species. At the end of the equilibration time the cells were emptied. Following protein precipitation, the samples were centrifuged and analyzed by LC-MS/MS. The samples from the protein containing compartment were quantified using calibration standards prepared in plasma and the protein free compartments were quantified using calibration standards prepared in dialysis buffer.

The nature of data set [3]: Plasma stability, dog. It counts as in vitro ADME. Particulars: Beagle, pooled plasma, 37° C., read-out: Half-life in ex vivo blood plasma. The source says: Samples were quenched in methanol and analyzed by LC-MS/MS analysis.
A short description of data set [4]: Plasma protein binding by equilibrium dialysis, dog. Format: in vitro ADME. Particulars: male, beagle, pH 7.4, read-out: Plasma free fraction. The procedure:
as §1
(In general: Equilibrium dialysis compares concentrations on both sides of a semipermeable membrane.)

A short description of data set [5]: Hepatocyte stability, human. Format: in vitro ADME. On the procedure:
Human, Beagle dog, Sprague-Dawley rat, and CD-1 mouse cryopreserved hepatocytes were obtained from XenoTech and stored at −150° C. until use. The hepatocytes were thawed and prepared according to the vendor's instructions, pooled into Krebs Henseleit buffer (KHB, pH 7.4), and kept on ice prior to initiating an experiment. […] The reaction mixture was incubated in a shaking water bath at 37° C. Aliquots of the incubation solutions were sampled at 0, 15, 30, 60, and 120 minutes. The reaction was immediately terminated by the addition of three volumes of ice-cold acetonitrile containing 0.1% formic acid and internal standards. After centrifugation at 1640×g for 10 minutes, the supernatants were transferred into HPLC vials, and the test compound was analyzed by LC-MS/MS. Positive controls, testosterone (20 μM) and 7-hydroxycoumarin (100 μM), were performed in parallel to confirm the enzyme activities of the hepatocytes used.
Experimental half-lives were transformed to the corresponding intrinsic clearance values and subsequently scaled to predicted in vivo clearance values, using the well-stirred model as previously described (Houston, Biochemical Pharmacology 47(9): 1469-1479, 1994; Obach, Drug Metabolism and Disposition 27(11): 1350-1359, 1999), with appropriate species-specific scaling factors (Barter et al., Current Drug Metabolism 8(1): 33-45, 2007).

The nature of data set [6]: Pharmacokinetic study in mouse. Format: in vivo, CD-1 mouse. The procedure:
Oral and IV doses were administered by oral gavage, or by tail vein injection in a 10% ethanol and 90% saline vehicle, respectively. For PO dosing, samples were taken at 0.167, 0.5, 1, 2, 4, 6 and 24 h p.d. For IV administration, samples were taken at 0.05, 0.167, 0.5, 1, 2, 4, 6 and 24 h p.d. Blood samples were centrifuged at 4° C. (2000 g, 5 minutes) to obtain plasma within 15 minutes after sample collection. The levels of Compound A were quantitated in mouse plasma by LC-MS/MS analysis. […] Typically, samples were injected onto an LC-MS/MS system using a Waters BEH Phenyl column. The aqueous mobile phase was water with 0.1% NH4OH (A), and the organic mobile phase was acetonitrile with 0.1% NH4OH (B). The gradient was as follows: 37% B for the first 0.2 min, increased to 44% B from 0.2 to 0.6 min, maintained at 44% B for 0.5 min, and decreased to 37% B within 0.05 min. The injection volume was 2 uL, and the total run time was 1.5 min with a flow rate of 0.6 mL/min. […] The ionization was conducted in the positive ion mode using the MRM transition [M+H]+m/z 563.5 parent ion to m/z 326.3 daughter ion, incorporating a turbo-ionspray interface. Eight to ten calibration standards were prepared in blank plasma of the relevant species providing a typical standard curve concentration range of 5-500 ng/mL. Pharmacokinetic parameters were calculated by noncompartmental methods using WinNonlin (version 5.3; Pharsight, St. Louis, Mo.). Parameters are presented as mean±S.D.

A short description of data set [7]: Liver microsome stability, human. It counts as in vitro ADME. On the procedure: The final incubation volume was 50 μL. Control incubations were included for each species where 0.1 M phosphate buffer pH 7.4 was added instead of NADPH (minus NADPH). Two control compounds were included for each species. […] The control (minus NADPH) was incubated for 45 minutes only. The reactions were stopped by transferring 25 μL of incubate to 50 μL methanol at the appropriate time points. The incubation plates were centrifuged at 2,500 rpm for 20 minutes at 4° C. to aid protein precipitation. Experimental half-lives were transformed to the corresponding intrinsic clearance values and subsequently scaled to predicted in vivo clearance values, using the well-stirred model as previously described (Houston, Biochemical Pharmacology 47(9): 1469-1479, 1994; Obach, Drug Metabolism and Disposition 27(11): 1350-1359, 1999), with appropriate species-specific scaling factors (Barter et al., Current Drug Metabolism 8(1): 33-45, 2007).

[8] abbreviates: male, CD-1, mouse, plasma, iv, 5 mg/kg, IV bolus.
Where [9] appears, read: male, plasma, CD-1 mouse, IV bolus, 5 mg/kg.
Where [10] appears, read: male, plasma, CD-1 mouse, PO, 20 mg/kg.

With `CC(C)N(C[C@H]1O[C@@H](n2cnc3c(N)ncnc32)[C@H](O)[C@@H]1O)[C@H]1C[C@@H](CCc2nc3cc(C(C)(C)C)ccc3[nH]2)C1` [Compound A, (2R,3R,4S,5R)-2-(6-amino-9H-purin-9-yl)-5-((((1r,3S)-3-(2-(5-(tert-butyl)-1H-benzo[d]imidazol-2-yl)ethyl)cyclobutyl)(isopropyl)amino)methyl)tetrahydrofuran-3,4-diol], in data set [1], the “Abundance based on UV spectra” value is 59.4%. For the same molecule, in data set [2], the fraction unbound at 5 μM worked out at 0.272. The half-life at 1 μM in data set [3] was greater than 120 min. Further, the fraction unbound at 5 μM in data set [4] was determined as 0.234. For the same molecule, the “Scaled Hepatic CL from hepatocytes” value in data set [5] is recorded as less than 3 mL/min/kg. Besides, in data set [6] (CD-1 mouse, IV bolus, 5 mg/kg), the CL stood at 76.7 ± 11.5 mL/min/kg and the t1/2 turned out to be 68.4 ± 21 min. Besides, the F in data set [6] (CD-1 mouse, PO, 20 mg/kg) was less than 1%. Besides, the Vd in data set [6] (male, CD-1, mouse, plasma, iv, 5 mg/kg, CD-1 mouse, IV bolus, 5 mg/kg, read-out: VDss) was found to be 1.58 L/kg. In data set [6] (setting [8]), this molecule showed a clearance of 77 mL/min/kg and a half-life of 66 min. Further, the Vd in data set [6] (male, CD-1, mouse, plasma, iv, 5 mg/kg, mouse, read-out: Unbound VDss) is 11.4 L/kg. In data set [6] (setting [9]), this molecule showed an AUC(0-inf) of 1.96 ± 0.3 µM·h, an AUC(0-t) of 1.95 ± 0.28 µM·h, a Cmax of 7.99 ± 1.9 µM and an MRT of 21 ± 3.6 min. The Tmax in data set [6] (setting [9]) was 3 min. In addition, in data set [6] (setting [10]), the AUC(0-t) was 0.0014 µM·h, the maximum concentration (Cmax) came out at 0.0019 µM and the Tmax was 30 min. For the same molecule, the “oral bioavailability (in words)” value in data set [6] (mouse, PO) was “low and negligible”. This molecule also registered a microsomal CLint at 3 μM in data set [7] (liver microsomes, pH 7.4, NADPH, 3 μM) of 88 µL/min/mg. Moreover, the “Scaled Hepatic CL from liver microsomes” value in data set [7] (well-stirred model) is on record as 17 mL/min/kg.

Usually half-life stands for the time in which the quantity being followed falls by half. Usually clearance stands for the rate of elimination divided by the concentration. A lower clearance goes with a low capacity for elimination. Broadly, the AUC(0-inf) is total exposure, with the tail of the curve extrapolated. Read a high AUC(0-inf) as high exposure. Broadly, the AUC(0-t) is the area under the concentration-time curve up to a stated or last time point. Lower therefore signals low exposure. One may read the Cmax as the highest concentration seen after dosing. A word on the MRT: it is a mean duration of stay, worked out from the concentration-time curve. As usually defined, the Tmax is the time at which the peak concentration occurs. By microsomal CLint is commonly meant the rate of metabolic loss divided by the concentration.
